Reference: PubChem BioAssay (NCI)
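Growth conditions: 96-well plates. Treatment: test compound, 48 hours, 5 concentrations. Analysis: linear interpolation between bracketing concentrations; unreached endpoints set to highest concentration. The concentration for 50% growth inhibition is given as GI50. TGI denotes the concentration required for complete inhibition of growth.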

Columns and labels:
Assay in all cases: DTP human tumour cell line panel, 48 h
HCT-15 colon = tested on: HCT-15 colon
SN12C renal = tested on: SN12C renal
SF-295 CNS = tested on: SF-295 CNS
SNB-75 CNS = tested on: SNB-75 CNS
MDA-MB-435 = tested on: MDA-MB-435
SNB-19 CNS = tested on: SNB-19 CNS
EKVX NSCLC = tested on: EKVX NSCLC
HOP-62 NSCLC = tested on: HOP-62 NSCLC
CAKI-1 renal = tested on: CAKI-1 renal
NCI-H460 lung = tested on: NCI-H460 lung
DU-145 prostate = tested on: DU-145 prostate
A498 renal = tested on: A498 renal
BT-549 breast = tested on: BT-549 breast
TK-10 renal = tested on: TK-10 renal
SW-620 colon = tested on: SW-620 colon
K-562 leukemia = tested on: K-562 leukemia
A549 NSCLC = tested on: A549 NSCLC
SK-MEL-5 melanoma = tested on: SK-MEL-5 melanoma
HS 578T breast = tested on: HS 578T breast
NCI/ADR-RES ovarian = tested on: NCI/ADR-RES ovarian
LOX IMVI melanoma = tested on: LOX IMVI melanoma
OVCAR-5 ovarian = tested on: OVCAR-5 ovarian
SF-539 CNS = tested on: SF-539 CNS
SK-OV-3 ovarian = tested on: SK-OV-3 ovarian
SK-MEL-28 melanoma = tested on: SK-MEL-28 melanoma
M14 melanoma = tested on: M14 melanoma
PC-3 prostate = tested on: PC-3 prostate
COLO 205 colon = tested on: COLO 205 colon
UACC-62 melanoma = tested on: UACC-62 melanoma
MCF7 breast = tested on: MCF7 breast
MDA-MB-231 breast = tested on: MDA-MB-231 breast
IGROV1 ovarian = tested on: IGROV1 ovarian
HT29 colon = tested on: HT29 colon
SK-MEL-2 melanoma = tested on: SK-MEL-2 melanoma
RPMI-8226 leukemia = tested on: RPMI-8226 leukemia
SF-268 CNS = tested on: SF-268 CNS
HOP-92 NSCLC = tested on: HOP-92 NSCLC
KM12 colon = tested on: KM12 colon
786-0 renal = tested on: 786-0 renal
ACHN renal = tested on: ACHN renal
HCC-2998 colon = tested on: HCC-2998 colon
OVCAR-3 ovarian = tested on: OVCAR-3 ovarian
NCI-H522 lung = tested on: NCI-H522 lung
T-47D breast = tested on: T-47D breast
U251 CNS = tested on: U251 CNS
MOLT-4 leukemia = tested on: MOLT-4 leukemia
OVCAR-4 ovarian = tested on: OVCAR-4 ovarian
NCI-H23 lung = tested on: NCI-H23 lung
CCRF-CEM leukemia = tested on: CCRF-CEM leukemia
HCT-116 colon = tested on: HCT-116 colon
UO-31 renal = tested on: UO-31 renal
OVCAR-8 ovarian = tested on: OVCAR-8 ovarian

## O=C(NCCNCCO)c1ccc(Nc2nc3ccccc3c3occc23)cc1
HCT-15 colon
  GI50: 16.7 µM
  TGI: 31.2 µM
SN12C renal
  GI50: 11.9 µM
  TGI: 24.6 µM
SF-295 CNS
  GI50: 14.1 µM
  TGI: 29.8 µM
SNB-75 CNS
  GI50: 9.26 µM
  TGI: 27.2 µM
MDA-MB-435
  GI50: 7.29 µM
  TGI: 22 µM
SNB-19 CNS
  GI50: 18.5 µM
  TGI: 49.5 µM
EKVX NSCLC
  GI50: 13.9 µM
  TGI: 32 µM
HOP-62 NSCLC
  GI50: 12.2 µM
  TGI: 24.9 µM
CAKI-1 renal
  GI50: 17.3 µM
  TGI: 33.1 µM
NCI-H460 lung
  GI50: 28.5 µM
  TGI: > 100 µM
DU-145 prostate
  GI50: 14.9 µM
  TGI: 30.7 µM
A498 renal
  GI50: 18.3 µM
  TGI: 39.4 µM
BT-549 breast
  GI50: 11.5 µM
  TGI: 34.2 µM
TK-10 renal
  GI50: 2.11 µM
  TGI: 6.67 µM
SW-620 colon
  GI50: 21.1 µM
  TGI: 43.1 µM
K-562 leukemia
  GI50: 3.37 µM
  TGI: 6.71 µM
A549 NSCLC
  GI50: 15.3 µM
  TGI: 30.1 µM
SK-MEL-5 melanoma
  GI50: 18.4 µM
  TGI: 35.2 µM
HS 578T breast
  GI50: 16.1 µM
  TGI: 36.7 µM
NCI/ADR-RES ovarian
  GI50: 24.9 µM
  TGI: 61.8 µM
LOX IMVI melanoma
  GI50: 8.45 µM
  TGI: 22.2 µM
OVCAR-5 ovarian
  GI50: 10.9 µM
  TGI: 23.2 µM
SF-539 CNS
  GI50: 12.6 µM
  TGI: 29.4 µM
SK-OV-3 ovarian
  GI50: 15.4 µM
  TGI: 36.5 µM
SK-MEL-28 melanoma
  GI50: 23.7 µM
  TGI: 58.4 µM
M14 melanoma
  GI50: 14.9 µM
  TGI: 30.4 µM
PC-3 prostate
  GI50: 4.15 µM
  TGI: 18.3 µM
COLO 205 colon
  GI50: 29.1 µM
  TGI: > 100 µM
UACC-62 melanoma
  GI50: 16.6 µM
  TGI: 30.8 µM
MCF7 breast
  GI50: 28 µM
  TGI: > 100 µM
MDA-MB-231 breast
  GI50: 3.12 µM
  TGI: 16.2 µM
IGROV1 ovarian
  GI50: 6.71 µM
  TGI: 25.1 µM
HT29 colon
  GI50: 29.3 µM
  TGI: > 100 µM
SK-MEL-2 melanoma
  GI50: 20.5 µM
  TGI: 60.3 µM
RPMI-8226 leukemia
  GI50: 18.3 µM
  TGI: 37.5 µM
SF-268 CNS
  GI50: > 100 µM
  TGI: > 100 µM
HOP-92 NSCLC
  GI50: 3.01 µM
  TGI: 18.4 µM
KM12 colon
  GI50: 8.99 µM
  TGI: 23.8 µM
786-0 renal
  GI50: 13.7 µM
  TGI: 27.5 µM
ACHN renal
  GI50: 14.2 µM
  TGI: 27.3 µM
HCC-2998 colon
  GI50: 2.14 µM
  TGI: 5.27 µM
OVCAR-3 ovarian
  GI50: 6.22 µM
  TGI: 22.8 µM
NCI-H522 lung
  GI50: 14.3 µM
  TGI: 35.4 µM
T-47D breast
  GI50: 25.8 µM
  TGI: 90.2 µM
U251 CNS
  GI50: 11.2 µM
  TGI: 23.8 µM
MOLT-4 leukemia
  GI50: 4.77 µM
  TGI: 15.1 µM
OVCAR-4 ovarian
  GI50: 24 µM
  TGI: > 100 µM
NCI-H23 lung
  GI50: 12.8 µM
  TGI: 26.4 µM
CCRF-CEM leukemia
  GI50: 3.05 µM
  TGI: 14.3 µM
HCT-116 colon
  GI50: 10.1 µM
  TGI: 23.3 µM
UO-31 renal
  GI50: 18.5 µM
  TGI: 44.9 µM
OVCAR-8 ovarian
  GI50: 2.61 µM
  TGI: 16.2 µM
